Series [1] in a line: Addition to stimulated gastric solution (stability in an acid environment). It counts as physicochemical. Conditions: added to a stimulated gastric solution. The source says:
Sample 1 was similarly added to a stimulated gastric solution.

Series [2] is described as follows: Rubbing a portion between thumb and finger (hygroscopicity). It counts as physicochemical. Conditions: rubbed between the thumb and finger; moisture from thumb, finger and surrounding air. The source says: Sample 1 was further compared to Sample 2 by rubbing a portion of each between the thumb and finger.
Series [3] can be described thus: Particle size. It counts as physicochemical. The source says:
The particle size found in Sample 1 and Sample 2 was about 70 mesh.

The nature of series [4]: Shaking the powder in a plastic bag (electrostatic behaviour). It counts as physicochemical. The settings on record: shaken in a plastic bag. As to the method: A 10:1 mixture of copper glycinate to terra alba (CaSO4) [Sample 1] was prepared and shaken together in a plastic bag. Next, a pure copper glycinate without the presence of terra alba [Sample 2] was also prepared and shaken in a plastic bag.

For series [5] the following is noted: zero ionic strength; reaction M^2+ + (Gly)^- <-> M(Gly)^+; cited from earlier work.

In the case of `NCC(=O)[O-].NCC(=O)[O-].[Cu+2]` [Sample 2, copper glycinate], in series [1], the “color change in stimulated gastric solution (stability in acid environment)” value is on record as “caused the product to change color”. Further, the “hygroscopicity: balling up with moisture” value in series [2] was “quickly balled up with moisture”. Further, the particle size entry in series [3] is given as “about 70 mesh”. Further, the “electrostatic behaviour: product sticking to the walls of the bag” value in series [4] is “a blue haze of product stuck the walls of the bag”.
Turning to copper, the “log of the equilibrium constant” value in series [5] is listed as 8.56.

These data come from patent US6458981B1, “Composition and method for preparing amino acid chelate hydroxides free of interfering ions” (Albion International, Inc., priority 2000, dated 2002).
